Measured values as given in patent US4195101A, “2',6'-Dihydroxy-9-(2,5-dihydroxyphenyl)octylphenone and its use as an anti-oxidant” (The Lion Dentifrice Co. Ltd., priority 1977, dated 1980).

Tests used:
[1] = Test I: peroxide value of refined lard by the active oxygen method (AOM); conditions: for Peroxide value: 97.5° C.
Protocol: (§1) The above-obtained compound was tested for its anti-oxidative effects in terms of peroxide value by the active oxygen method (AOM) and also in terms of oxygen absorption. […] Each of the tests I and II are described below together with the results thereof.
Varied amounts of the compound were admixed with and uniformly dissolved in portions of refined lard each weighing 20 g to prepare test samples. Each test sample was kept in an oil bath of thermostat at 97.5°±0.5° C., while air was forcedly blown into the lard at a rate of […].
The thus treated samples of the lard were analyzed for the peroxide value (POV for brevity) periodically or at certain intervals, in accordance with the modified Lea's method as described in "Yukagaku" (Journal of Japan Oil Chemist Society), vol. 19(15), p. 340, 1970.
In comparison, similar experiments were undertaken for the samples of the same lard with addition of BHA instead of the compound of the present invention or without addition of any anti-oxidant.

[2] = LD50, oral administration, mouse; conditions: in vivo, po
mouse = test: LD50, oral administration, mouse
[3] = Irritation (statement on properties of the compound)
[4] = Anti-oxidative activity, general statements
[5] = Solubility rating of 10 mg of the crystal in various solvents (Table I); type: physicochemical; conditions: for Rating of Solubility: 10 mg of crystal
Protocol: This compound is obtained as needle-like or plate-like crystals white to pale-yellow in appearance, tasteless, odorless and non-irritative, and has a melting point of 123.5° to 124° C. The compound is soluble in various solvents as shown in Table I. In Table I, the solubility of the compound was rated by A, B, C and D and each rating was determined for 10 mg of the crystal as follows.
A: Soluble in less than 0.1 ml of solvent.
B: Soluble in 0.1-1.0 ml of solvent.
C: Soluble in 1.0-10.0 ml of solvent.
[…]: Soluble in more than 10.0 ml of solvent.

[6] = Test II: oxygen absorption in corn salad oil, Warburg's manometer; conditions: 0.02% by weight in corn salad oil, 60° C.
Protocol: as §1
The compound of the present invention was determined for the rate of oxygen absorption in a corn salad oil to which 0.02% by weight of the compound had been added. For the purpose, 2 grams of the corn salad oil sample was taken in the receptacle of Warburg's manometer with thermostat at 60°±0.1° C., which was shaken with 110 vibrations per minute in a vibration amplitude of 60 mm. The rate of oxygen absorption was determined by reading the manometer according to the procedure set forth in "Jikken Kagaku Koza" (Lectures in Experimental Chemistry), vol. 24, p. 85, 1958, Maruzen Publishing, Japan. In this testing, the receptacle was totally wrapped with an aluminum foil to prevent the photooxidation of the oil, and mercury was used as the manometer fluid in place of Brodie's solution in order to minimize any possible influence caused by fluctuations in the atmospheric pressure.
Further, in comparison, a similar test was conducted using the same corn salad oil with addition of 0.02% by weight of BHA or without addition of any anti-oxidant.

O=C(CCCCCCCCc1cc(O)ccc1O)c1c(O)cccc1O [Inventive compound, 2',6'-dihydroxy-9-(2,5-dihydroxyphenyl)octylphenone]
Peroxide value ([1]; 0.001 (% by weight) in lard, 8 hours): 2.4 meq./kg
Peroxide value ([1]; 0.001 (% by weight) in lard, 16 hours): 5.3 meq./kg
Peroxide value ([1]; 0.001 (% by weight) in lard, 24 hours): 8.2 meq./kg
Peroxide value ([1]; 0.001 (% by weight) in lard, 32 hours): 14.9 meq./kg
Peroxide value ([1]; 0.001 (% by weight) in lard, 40 hours): 419.9 meq./kg
Peroxide value ([1]; 0.005% by weight in lard, 8 hours): 1.8 meq./kg
Peroxide value ([1]; 0.005% by weight in lard, 16 hours): 5.0 meq./kg
Peroxide value ([1]; 0.005% by weight in lard, 24 hours): 5.9 meq./kg
Peroxide value ([1]; 0.005% by weight in lard, 32 hours): 6.3 meq./kg
Peroxide value ([1]; 0.005% by weight in lard, 48 hours): 12.0 meq./kg
Peroxide value ([1]; 0.005% by weight in lard, 56 hours): 18.2 meq./kg
Peroxide value ([1]; 0.005% by weight in lard, 64 hours): 560.9 meq./kg
prevention of oxidative denaturation of lard, compared with 0.02% by weight of BHA ([1]; 0.005% by weight of the compound in lard): to the same extent as done by adding 0.02% by weight of BHA
Peroxide value ([1]; 0.01% by weight in lard, 8 hours): 1.5 meq./kg
Peroxide value ([1]; 0.01% by weight in lard, 16 hours): 3.2 meq./kg
Peroxide value ([1]; 0.01% by weight in lard, 24 hours): 4.8 meq./kg
Peroxide value ([1]; 0.01% by weight in lard, 32 hours): 5.4 meq./kg
Peroxide value ([1]; 0.01% by weight in lard, 40 hours): 7.7 meq./kg
Peroxide value ([1]; 0.01% by weight in lard, 48 hours): 9.3 meq./kg
Peroxide value ([1]; 0.01% by weight in lard, 56 hours): 11.3 meq./kg
Peroxide value ([1]; 0.01% by weight in lard, 64 hours): 15.4 meq./kg
Peroxide value ([1]; 0.01% by weight in lard, 72 hours): 22.1 meq./kg
Peroxide value ([1]; 0.01% by weight in lard, 80 hours): 170.9 meq./kg
anti-oxidative effect compared with the same amount of BHA ([1]; 0.02% by weight): approximately twice as high as the same amount of BHA
Peroxide value ([1]; 0.02% by weight in lard, 8 hours): 1.8 meq./kg
Peroxide value ([1]; 0.02% by weight in lard, 16 hours): 2.9 meq./kg
Peroxide value ([1]; 0.02% by weight in lard, 24 hours): 3.8 meq./kg
Peroxide value ([1]; 0.02% by weight in lard, 32 hours): 4.5 meq./kg
Peroxide value ([1]; 0.02% by weight in lard, 40 hours): 6.0 meq./kg
Peroxide value ([1]; 0.02% by weight in lard, 48 hours): 7.2 meq./kg
Peroxide value ([1]; 0.02% by weight in lard, 56 hours): 8.2 meq./kg
Peroxide value ([1]; 0.02% by weight in lard, 64 hours): 10.6 meq./kg
Peroxide value ([1]; 0.02% by weight in lard, 72 hours): 13.2 meq./kg
Peroxide value ([1]; 0.02% by weight in lard, 80 hours): 14.5 meq./kg
Peroxide value ([1]; 0.02% by weight in lard, 96 hours): 21.5 meq./kg
Peroxide value ([1]; 0.02% by weight in lard, 112 hours): 59.3 meq./kg
Peroxide value ([1]; 0.02% by weight in lard, 120 hours): 390.7 meq./kg
Peroxide value ([1]; 0.1% by weight in lard, 8 hours): 2.1 meq./kg
Peroxide value ([1]; 0.1% by weight in lard, 16 hours): 3.0 meq./kg
Peroxide value ([1]; 0.1% by weight in lard, 24 hours): 4.1 meq./kg
Peroxide value ([1]; 0.1% by weight in lard, 32 hours): 5.2 meq./kg
Peroxide value ([1]; 0.1% by weight in lard, 40 hours): 7.9 meq./kg
Peroxide value ([1]; 0.1% by weight in lard, 48 hours): 8.7 meq./kg
Peroxide value ([1]; 0.1% by weight in lard, 56 hours): 9.9 meq./kg
Peroxide value ([1]; 0.1% by weight in lard, 64 hours): 11.8 meq./kg
Peroxide value ([1]; 0.1% by weight in lard, 72 hours): 13.5 meq./kg
Peroxide value ([1]; 0.1% by weight in lard, 80 hours): 16.0 meq./kg
Peroxide value ([1]; 0.1% by weight in lard, 96 hours): 18.5 meq./kg
Peroxide value ([1]; 0.1% by weight in lard, 112 hours): 24.0 meq./kg
Peroxide value ([1]; 0.1% by weight in lard, 120 hours): 24.1 meq./kg
Peroxide value ([1]; 0.1% by weight in lard, 144 hours): 29.9 meq./kg
Peroxide value ([1]; 0.1% by weight in lard, 168 hours): 32.1 meq./kg
Peroxide value ([1]; 0.1% by weight in lard, 192 hours): 38.1 meq./kg
Peroxide value ([1]; 0.1% by weight in lard, 200 hours): 45.0 meq./kg
Peroxide value ([1]; 0.1% by weight in lard, 264 hours): 678.2 meq./kg
LD50 [2]: > 2000 mg/kg
LD50 value compared with BHT (mouse): about the same as in BHT
irritation [3]: non-irritative
anti-oxidative activities (summary of peroxide value and oxygen absorption tests) ([4]; AOM peroxide value and oxygen absorption): excellent anti-oxidative activities
anti-oxidative activities compared with the conventional anti-oxidant BHA ([4]; in foodstuffs, such as lard or the like): much higher anti-oxidative activities than the conventional anti-oxidant BHA
Rating of Solubility ([5]; 1,2-Dichloroethane, at 25° C.): C (Soluble in 1.0-10.0 ml of solvent)
Rating of Solubility ([5]; 1,2-Dichloroethane, at the boiling point of solvent): A (Soluble in less than 0.1 ml of solvent)
Rating of Solubility ([5]; Acetone, at 25° C.): A (Soluble in less than 0.1 ml of solvent)
Rating of Solubility ([5]; Acetone, at the boiling point of solvent): A (Soluble in less than 0.1 ml of solvent)
Rating of Solubility ([5]; Acetonitrile, at 25° C.): A (Soluble in less than 0.1 ml of solvent)
Rating of Solubility ([5]; Acetonitrile, at the boiling point of solvent): A (Soluble in less than 0.1 ml of solvent)
Rating of Solubility ([5]; Benzene, at the boiling point of solvent): B (Soluble in 0.1-1.0 ml of solvent)
Rating of Solubility ([5]; Carbon tetrachloride, at the boiling point of solvent): C (Soluble in 1.0-10.0 ml of solvent)
Rating of Solubility ([5]; Chloroform, at 25° C.): C (Soluble in 1.0-10.0 ml of solvent)
Rating of Solubility ([5]; Chloroform, at the boiling point of solvent): C (Soluble in 1.0-10.0 ml of solvent)
Rating of Solubility ([5]; Dichloromethane, at the boiling point of solvent): C (Soluble in 1.0-10.0 ml of solvent)
Rating of Solubility ([5]; Diethylether, at 25° C.): A (Soluble in less than 0.1 ml of solvent)
Rating of Solubility ([5]; Diethylether, at the boiling point of solvent): A (Soluble in less than 0.1 ml of solvent)
Rating of Solubility ([5]; Ethyl acetate, at 25° C.): A (Soluble in less than 0.1 ml of solvent)
Rating of Solubility ([5]; Ethyl acetate, at the boiling point of solvent): A (Soluble in less than 0.1 ml of solvent)
Rating of Solubility ([5]; Ethyl alcohol, at 25° C.): A (Soluble in less than 0.1 ml of solvent)
Rating of Solubility ([5]; Ethyl alcohol, at the boiling point of solvent): A (Soluble in less than 0.1 ml of solvent)
Rating of Solubility ([5]; Methyl alcohol, at 25° C.): A (Soluble in less than 0.1 ml of solvent)
Rating of Solubility ([5]; Methyl alcohol, at the boiling point of solvent): A (Soluble in less than 0.1 ml of solvent)
Rating of Solubility ([5]; Pyridine, at 25° C.): A (Soluble in less than 0.1 ml of solvent)
Rating of Solubility ([5]; Pyridine, at the boiling point of solvent): A (Soluble in less than 0.1 ml of solvent)
Rating of Solubility ([5]; Toluene, at the boiling point of solvent): B (Soluble in 0.1-1.0 ml of solvent)
solubility in ethyl acetate and ethyl alcohol ([5]; ethyl acetate and ethyl alcohol, in words): readily soluble
Rating of Solubility ([5]; iso-Propyl alcohol, at 25° C.): A (Soluble in less than 0.1 ml of solvent)
Rating of Solubility ([5]; iso-Propyl alcohol, at the boiling point of solvent): A (Soluble in less than 0.1 ml of solvent)
solubility in ligroin and chloroform ([5]; ligroin and chloroform, in words): insoluble or hardly soluble
Rating of Solubility ([5]; n-Butyl alcohol, at 25° C.): A (Soluble in less than 0.1 ml of solvent)
Rating of Solubility ([5]; n-Butyl alcohol, at the boiling point of solvent): A (Soluble in less than 0.1 ml of solvent)
Rating of Solubility ([5]; n-Propyl alcohol, at 25° C.): A (Soluble in less than 0.1 ml of solvent)
Rating of Solubility ([5]; n-Propyl alcohol, at the boiling point of solvent): A (Soluble in less than 0.1 ml of solvent)
solubility in 1,2-dichloroethane, toluene or benzene ([5]; room temperature, in words): insoluble or hardly soluble
Oxygen absorption ([6]; 85 hours): 84.4 μ1/g
Oxygen absorption ([6]; 140 hours): 138.7 μ1/g
Oxygen absorption ([6]; 166 hours): 159.8 μ1/g
Oxygen absorption ([6]; 199 hours): 174.8 μ1/g
Oxygen absorption ([6]; 263 hours): 238.0 μ1/g
Oxygen absorption ([6]; 288 hours): 280.4 μ1/g
Oxygen absorption ([6]; 320 hours): 334.6 μ1/g
Oxygen absorption ([6]; 343 hours): 375.3 μ1/g
